Converted amounts (≈) assume the structure as drawn.

This is an account of results in patent US9200171B2, “AZO compound and ink containing the compound” (MITSUBISHI CHEMICAL CORPORATION, priority 2011, dated 2015).

The nature of series [1]: Solubility C (saturated concentration at 5° C.) of compound in low-polarity solvent and product εC. The format is physicochemical. The note with it: for Solubility / solubility at 24 h: at 5° C.; for ε · C: C at 5° C.; for solubility at 24 h: organic solvent or mixture, thermodynamic from solid. On the procedure:
The solubility C of each compound in each solvent was measured as follows.
Each compound was added to each solvent until a dissolution residue came to remain, and the mixture was subjected to an ultrasonic treatment for 30 minutes at 30° C. After the mixture was allowed to stand at 5° C. for 24 hours, centrifugal filtration was performed through a filter of 0.1 μm using a microcentrifuge (centrifugal force 5200×g). The resulting saturated solution was diluted to an appropriate concentration, and measurement of absorption spectra was performed on Hitachi spectrophotometer U-4100 using a quartz cell having an optical path length for measurement of 10 mm. The concentration of each compound was determined from a relationship between the absorbance at the absorption-maximum wavelength λmax (nm) and the molar extinction coefficient ε (L·mol^−1·cm^−1) previously measured, and the solubility C (mol·L^−1) was calculated. Moreover, the value of the product of the molar extinction coefficient ε (L·mol^−1·cm^−1) and the solubility C (mol·L^−1), εC, was determined.
Sudan Black B (manufactured by Tokyo Chemical Industry Co., Ltd.) that is a commercially available oil-soluble black dye was added to n-decane (relative permittivity 2.0, solubility in water 1 mg/L or less) until a dissolution residue came to remain, and the mixture was subjected to an ultrasonic treatment for 30 minutes at 30° C. After the mixture was allowed to stand at 5° C. for 24 hours, centrifugal filtration was performed through a filter of 0.1 μm using a microcentrifuge (centrifugal force 5200×g). The resulting saturated n-decane solution was diluted to an appropriate concentration.

Series [2] is described as follows: Absorption-maximum wavelength λmax, molar extinction coefficient ε and solution colour in each solvent. The following applies: for ε: at absorption-maximum wavelength. The format is physicochemical. The procedure:
Each of the compounds 1 to 15 and the comparative example compounds 1 and 2 (1 mg each) was dissolved in each solvent (100 ml) and measurement of absorption spectra was performed on Hitachi spectrophotometer U-4100 using a quartz cell having an optical path length for measurement of 10 mm. From the resulting spectra, absorption-maximum wavelength λmax (nm) and molar extinction coefficient ε ([…]) were determined.

For the molecule `CCCCC(CC)CN(CC(CC)CCCC)c1ccc(N=Nc2sc(N=Nc3ccc(C(=O)OCC(C)C)cc3)cc2C#N)c(CC)c1` (stereo not drawn) [Compound 2], the Solubility in series [1] (in n-decane) and in series [1] (in tetradecane) was 27 mM (≈ 18.5 mg/mL) each time. Also, the “ε · C” value in series [1] (n-decane) and in series [1] (tetradecane) was 1500 cm⁻¹ each time. Moreover, the Absorption-maximum wavelength is listed as 635 nm in series [2] (n-decane) and 637 nm in series [2] (tetradecane). The Color tone result in series [2] (n-decane solution) and in series [2] (tetradecane solution) was “blue” throughout. In addition, the ε in series [2] (n-decane) turned out to be 57000 L/mol/cm; in series [2] (tetradecane) it was 54000 L/mol/cm.

For `CCCCC(CC)CNc1ccc(NCC(CC)CCCC)c2c1C(=O)c1ccccc1C2=O` (stereo not drawn) [Comparative example compound 1, reference compound], the “ε · C” value amounted to 1200 cm⁻¹ in series [1] (Isopar M), 460 cm⁻¹ in series [1] (n-decane) and 1600 cm⁻¹ in series [1] (tetradecane). The solubility (commonly the concentration that dissolves in the medium under given conditions) at 24 h worked out at 71 mM (≈ 32.9 mg/mL) in series [1] (in Isopar M), 27 mM (≈ 12.5 mg/mL) in series [1] (in n-decane) and 94 mM (≈ 43.5 mg/mL) in series [1] (in tetradecane). In addition, the Absorption-maximum wavelength in series [2] (Isopar M) is reported as 651 nm; in series [2] (n-decane), 652 nm; in series [2] (tetradecane), 651 nm. For the same molecule, the Color tone result in series [2] (Isopar M solution), in series [2] (n-decane solution) and in series [2] (tetradecane solution) was “blue” each time. The ε in series [2] (Isopar M), in series [2] (n-decane) and in series [2] (tetradecane) was 17000 L/mol/cm each time.

With `CCCCC(CC)CN(CC(CC)CCCC)c1cc(NC(C)=O)c(/N=N/c2nc(Cl)c(C=O)s2)cc1OC` (stereo not drawn) [Compound 9], the entries for the “ε · C” value in series [1] (Isopar M), in series [1] (n-decane) and in series [1] (tetradecane) were 2000 cm⁻¹, 3300 cm⁻¹ and 3300 cm⁻¹, respectively. In addition, the solubility at 24 h worked out at 34 mM (≈ 19.7 mg/mL) in series [1] (in Isopar M), 58 mM (≈ 33.5 mg/mL) in series [1] (in n-decane) and 34 mM (≈ 19.7 mg/mL) in series [1] (in tetradecane). For the same molecule, the Absorption-maximum wavelength in series [2] (Isopar M) was found to be 618 nm; in series [2] (n-decane), 617 nm; in series [2] (tetradecane), 618 nm. Besides, the Color tone entry in series [2] (Isopar M solution), in series [2] (n-decane solution) and in series [2] (tetradecane solution) was “blue” in each case. Moreover, the values for the ε in series [2] (Isopar M), in series [2] (n-decane) and in series [2] (tetradecane) were 59000 L/mol/cm, 57000 L/mol/cm and 59000 L/mol/cm, respectively.

`CCCCc1ccc(N=Nc2cc(C#N)c(/N=N/c3ccc(N(CC(CC)CCCC)CC(CC)CCCC)cc3NC(C)=O)s2)cc1` (stereo not drawn) [Compound 1]: in series [1] (n-decane), the “ε · C” value amounted to 1800 cm⁻¹. For the same molecule, the solubility at 24 h in series [1] (in n-decane) turned out to be 24 mM (≈ 16.1 mg/mL). In series [2] (n-decane), this molecule registered an Absorption-maximum wavelength of 619 nm and a ε of 76000 L/mol/cm. In addition, the Color tone result in series [2] (n-decane solution) is recorded as “blue”.
